Data: patent publication US12642809B2, “Fucosylation and immune modulation in cancer” (H. LEE MOFFITT CANCER CENTER AND RESEARCH INSTITUTE, INC., priority 2019, dated 2026)
“Also recorded” adds a separate entry of the source.

How the values were obtained:
[1] = test system: Leukocyte Adhesion Deficiency II; details: L-fuc supplementation; cited from earlier work
[2] = test system: SW1 tumors; experiment: H2K1/EB1 knockdown and EB1 fucomutant reconstitution SW1 tumor model; type: in vivo, mouse; details: for L-fuc-triggered tumor suppression: EB1 (IEβ) knockdown tumors (shEB1, shEB1+EV)
Description: Single-cell suspensions from tumor and spleen tissue were stained with Live/Dead Zombie NIR (Biolegend, (San Diego, CA)) at 1:1,000 in PBS for 20 min. Cell suspensions were spun down and stained with the following antibodies: APC anti-mouse CD3 (0.5 μg/mL, BD Biosciences (San Jose, CA)), Pacific Blue anti-mouse CD4 ([…], BD Biosciences (San Jose, CA)), BV785 anti-mouse CD8 (0.5 μg/mL, BD Biosciences (San Jose, CA)), PerCP anti-mouse CD25 ([…], BD Biosciences (San Jose, CA)), FITC anti-mouse F4/80 (0.5 μg/mL, BD Biosciences (San Jose, CA)), PeCy7 anti-mouse CD11c (0.5 μg/mL, BD Biosciences (San Jose, CA)), PE anti-mouse NK1.1 (0.5 μg/mL, BD Biosciences (San Jose, CA)), PE anti-mouse DX5 (0.5 μg/mL, BD Biosciences (San Jose, CA)), PerCP-Cy5.5 anti-mouse CD11b (0.5 μg/mL, BD Biosciences (San Jose, CA)). After staining, the cells were washed and fixed (2% formaldehyde), followed by another wash and flow cytometric analysis. The compensation controls were prepared using 0.5 μg/ml. of each antibody with beads UltraComp eBeads™, (ThermoFisher Scientific (Waltham, MA)). All samples were subject to flow cytometric analysis using a LSR Flow Cytometer (BD Biosciences (San Jose, CA)). Flow cytometric data was further analyzed using FlowJo™ analysis software (BD Biosciences (San Jose, CA)). TIL profiles were determined as a measure of TIL subpopulations per gram of tumor tissues or % of total splenocytes.
SW1 mouse melanoma cells expressing either shNT (non-targeting shRNA), shH2K1, shEB1, shNT+EV, shEB1+EV, shEB1+EB1 WT, or shEB1+EB1 N46G were injected into syngeneic C3H/HeN female mice. After approximately 7 days, when the mice tumors reached ˜150 mm^3, the mice were either supplemented with or without 100 mM L-fucose (Biosynth (Oak Terrace, IL)) via drinking water, which was provided ad libitum. When the tumors reached ˜2 cm^3, the animals were sacrificed, and the tumors were either processed for flow cytometric profiling or for histological analysis as indicated

[3] = test system: cell surface fucosylation; experiment: Flow cytometry of cell surface fucosylation (AAL lectin) in melanoma cells; type: cell-based, human; details: 250 μM, 72 h, panel of melanoma cell lines
Description: Indicated cells were treated for 72 h with DMSO, 250 μM fucosyltransferase inhibitor (FUTi) (Millipore Sigma (St. Louis, MO)), or 250 μM of L-fucose (Biosynth (Oak Terrace, IL)). After 72 h, cells were stained with 0.1 μM PKH26 (Millipore Sigma (St. Louis, MO)) prior to fixation in 4% formaldehyde solution. The cells were stained with anti-HLA-DRB1 (rabbit anti-human HLA-DRB1 (0.2 μg/mL, ab92371, Abcam (Cambridge, UK)) and fluorescein AAL (0.2 μg/ml. Vector Labs (Burlingame, CA)), or anti-human or anti-mouse PD-L1 (Novus Biologicals (Centennial, CO) or Biolegend (San Diego, CA), respectively) overnight. The following day the cells were washed 3 times prior to adding AlexaFluor 594 donkey anti-rabbit (0.8 μg/mL, ThermoFisher Scientific (Waltham, MA)). Cells were washed 3 times and then subject to flow cytometric analyses using a FACSCalibur™ (BD Biosciences (San Jose, CA)). Samples were analyzed using FlowJo™ analysis software (BD Biosciences (San Jose, CA)). Median values of DRB1 and AAL were normalized to PKH26 values and statistical analysis was performed using GraphPad Prism™.

[4] = test system: SM1 tumors; experiment: Anti-PD1 ± L-fucose, SM1 (BRAF-mutant) model in C57BL/6 mice; type: in vivo, mouse
From the text: (§1) Fucosylation of HLA-DRB1 occurs on amino acid N48 (mutation to G abolishes interaction with fucose-binding AAL, lectin) (FIG. 9A). […] To further investigate the efficacy of the combination therapy of L-fucose and anti-PD1 and to see if the combination of L-fucose and anti-PD1 improved the efficacy of either agent alone, two mouse melanoma mouse models were used. The first was the NRAS-mutant melanoma mouse model. Here, C3H mice were pretreated with anti-PD1 and/or L-fucose or a L-fucose pre-dose followed by anti-PD1 antibody (FIG. 11). […] Using a BRAF-mutant melanoma model, the efficacy of the combination therapy was more pronounced. Here C57BL6 mice were challenged with SMI cells (FIG. 11). 7 days post challenge, mice received either a control, anti-PD1, L-fucose, or L-fucose and anti-PD1.
(§2) SW1 or SM1 mouse melanoma cells were injected into syngeneic C3H/HeN female or C57BL/6 male mice, respectively. After approximately 7 days, when the mice tumors reached ˜150 mm^3, the mice were either supplemented with or without 100 mM L-fucose (Biosynth (Oak Terrace, IL)) via drinking water, which was provided ad libitum. Simultaneously, the mice were injected either with PBS (control) or anti-PD1 (20 mg/kg, clone RMP1-14, Bioxcell (West Lebanon, NH)) every 3-4 days until endpoint. When the tumors reached ˜2 cm^3, the animals were sacrificed.

[5] = test system: SW1 tumors; experiment: Anti-PD1 ± L-fucose, SW1 (NRAS-mutant) model in C3H mice; type: in vivo, mouse
From the text: as §1, §2

[6] = test system: SW1 tumors; experiment: SW1/C3H/HeJ model, L-fucose with anti-CTLA4 or anti-PD1 (FIG. 10); type: in vivo, mouse; details: oral L-fucose 100 mM from day 14
Description: FIGS. 10A and 10B show Oral L-fucose is more tumor suppressive than α-CTLA4 or α-PD1 alone, beginnings of improved effects. SW1 tumor growth curves in mice fed ±100 mM L-fucose treated with either control (PBS) or […] (10A) or α-PD1 (10B). Combinations are color-coded as indicated. N=8 mice per condition. L-fucose was administered in the water starting on day 14 (refreshed twice weekly); α-CTLA4 or α-PD1 was administered (20 mg/kg each) twice weekly starting day 14.

[7] = test system: MDSCs; experiment: T cell proliferation in co-culture with pre-treated MDSCs; type: cell-based; details: CD3/CD28 activation, CellTrace Violet
Description: Shown progressive divisions of CD3/CD28-activated T cells (both CD4+ and CD8+ combined) as affected by co-culture with DMSO (control)-, FUTi (fucosyltransferase inhibitor)-, or L-fucose-pre-treated MDSCs. Undivided T cells are represented by the dark grey column. Divisions were measured by loss of CellTrace™ Violet stain. First division is represented by the light green column; second division is represented by the yellow column; and third division is represented by the navy blue column.

C[C@H](O)[C@@H](O)[C@@H](O)[C@H](O)C=O [L-fucose]
co-morbidities [1]: without significant co-morbidities | symptoms of the disorder [1]: can be mitigated | L-fuc-triggered tumor suppression [2]: abrogates | L-fuc-triggered tumor suppression ([2]; listed as L-fuc): completely abrogated | reduced tumor growth ([2]; control knockdown (shNT / shNT+EV) tumors): ~60% | tumor suppression ([2]; shEB1+N46G tumors): did not suppress | reduced tumor growth ([2]; shEB1+WT tumors): > 60% | L-fuc-triggered induction of total TIL counts and subpopulations ([2]; shEB1 tumors): reduced; also recorded: abrogated | TIL induction by L-fuc ([2]; shEB1 tumors reconstituted with EB1 WT): restored | TIL induction by L-fuc ([2]; shEB1 tumors reconstituted with EV or EB1 N46G): did not | cell surface fucosylation relative to DMSO [3]: increased | tumor growth suppressed ([4]; for 21 days): > 50% | tumor suppression compared with anti-PD1 ([4]; single agents): less effective than anti-PD1 | suppressed tumor growth ([5]; 100 mM L-fuc alone): 50-60% | control of tumor ([5]; NRAS-mutant model, FIG. 11, single agents): effectively control the tumor | tumor suppression compared with anti-PD1 ([5]; single agents): as much as anti-PD1; also recorded: as well as anti-PD1 | suppression of melanoma growth compared with checkpoint antibodies [6]: more significantly than anti-CTLA4 or anti-PD1 alone | effect of pre-treated MDSCs on T cell proliferation [7]: do not
